The nature of this series: Dissociation constant pKb of the amine additive (Table 1). Type of series: physicochemical. Particulars: measured at 25° C. An excerpt:
The inventors have conducted an extensive study on suppression or inhibition of halogenation reaction which would occur during preparation of a halogenated aromatic amine. As a result, the inventors discovered that when a halogenated aromatic nitro compound is hydrogenated in the presence of a predetermined amount of a platinum catalyst together with an amine selected from the group consisting of an alkylmonoamine, an alicyclic amine and a polyalkylenepolyamine, the dehalogenation may be suppressed to a minimum. The present invention has been completed on the basis of this discovery. The alkylmonoamine, alicyclic amine and polyalkylenepolyamine have common properties that they are an organic nitrogen-containing base having a dissociation constant pKb lower than 4.2. The dissociation constant herein described means that which is defined according to the dissociation equilibrium of the usual acid or base, i.e., when an organic nitrogen-containing base is expressed by RN, the dissociation equilibrium of RN is expressed by a formula
RN + H2 O .revreaction. RNH^+ + OH^-
and the dissociation constant is defined as follows [formula] where [ ]means activity.
Though the dissociation constant pKb is generally more or less varied with temperature, the pKb value is measured at 25° C herein.

2 compounds from patent US4070401A, “Method for the preparation of a halogenated aromatic amine” (Mitsui Toatsu Chemicals Inc., priority 1972, dated 1978) can be followed below.

Take `CC(C)N` [isopropylamine]: the “Dissociation Constant pKb” value is 3.4.

Consider `CN` [methylamine], for which the “Dissociation Constant pKb” value worked out at 3.4.
